Test results published in article PMC11847391, “Synthesis and biological activities of 3-aminoimidazo[1,2-α]pyridine compounds” (BMC Chemistry, 2025).

Experiments:
[1] = tested on: MCF-7 human breast cancer cell line; test: Cytotoxicity, Trypan blue exclusion test, MCF-7; format: cell-based; conditions: for IC50: MCF-7, 24 h, Trypan blue exclusion, mean ± SD of two independent experiments
Experimental: (§1) The synthesized compounds were assessed for their cytotoxic effects on three different cancer cell lines: the MCF-7 human breast cancer cell line (ATCC number: HTB-22), the HT-29 human colorectal adenocarcinoma cell line [HTB-38; American Type Culture Collection (ATCC), Manassas, VA, USA], and the B16F10 murine melanoma cancer cell line [CRL-6475; American Type Culture Collection (ATCC), Manassas, VA, USA], as well as the normal cell line mouse Embryonic Fibroblast-1 cell line (MEF-1; ATCC CRL-2214). The cell line was cultivated in high-glucose Dulbecco’s Modified Eagle Medium (DMEM) that is supplemented with L-glutamine, phenol red (Fuji Film Wako, Osaka, Japan), 10% fetal bovine serum (FBS; G.E. Healthcare, Chicago, IL, USA), and 1% penicillin/streptomycin (P/S) (Nacalai Tesque, Kyoto, Japan). Exponentially growing cells (1 × 10^5 cells/well) were seeded in a 24-well plate with sterile-filtered DMEM medium at 37 °C under 5% CO2 and incubated overnight. The cells were then treated with different concentrations of test compounds (5, 10, 50, and 100 µg/mL) and incubated for 24 h in a humidified atmosphere. After 24 h of incubation, viable cells were counted in each well using the Trypan blue exclusion test. All compounds were initially dissolved in DMSO, and the final concentration of DMSO was less than 1% in all of the considered concentrations of the applied compounds. The IC50 values from at least two independent experiments were compared with the control and expressed as the mean ± SD. The analysis of two groups was performed using the student t-test, and P-values < 0.05 were statistically significant.

[2] = tested on: HT-29 human colorectal adenocarcinoma cell line; test: Cytotoxicity, Trypan blue exclusion test, HT-29; format: cell-based; conditions: for IC50: HT-29, 24 h, Trypan blue exclusion, mean ± SD of two independent experiments
Experimental: as §1

[3] = tested on: mouse Embryonic Fibroblast-1 cell line (MEF-1); test: Cytotoxicity, Trypan blue exclusion test, normal MEF cells; format: cell-based; conditions: for IC50: normal cell line MEF, 24 h, Trypan blue exclusion, mean ± SD of two independent experiments
Experimental: as §1

[4] = tested on: B16F10 murine melanoma cancer cell line; test: Cytotoxicity, Trypan blue exclusion test, B16F10; format: cell-based; conditions: for IC50: B16F10, 24 h, Trypan blue exclusion, mean ± SD of two independent experiments
Experimental: as §1

B16F10 cell line = test: Morphological changes of treated B16F10 cells; format: cell-based, murine; conditions: high concentrations (≥ 50 µg/ml), versus untreated cancer cells
From the text: (§2) In comparison to the control (untreated cancer cells), the three cancer cell lines (MCF-7, HT-29, and B16F10) were investigated for morphological changes after being treated with the synthesized compounds 9–19.

HT-29 cell line = test: Morphological changes of treated HT-29 cells; format: cell-based, human; conditions: high concentrations (≥ 50 µg/ml), versus untreated cancer cells
From the text: as §2

Structure (SMILES)	IC50 [1] [µM]	IC50 [2] [µM]	IC50 [3] [µM]	IC50 [4] [µM]	IC50 ([1]; Homo sapiens, MCF7, 24 h) [µM]	IC50 ([2]; Homo sapiens) [µM]	IC50 ([3]; Mus musculus, MEF) [µM]	also measured
COc1ccc(-c2nc3ccccn3c2Nc2ccc(Cl)cc2)c(OC)c1OC [C00001]	> 200	> 200	> 200	> 200	–	–	–	–
COc1ccc(-c2nc3ccccn3c2Nc2ccc(Cl)cc2)cc1OCc1ccccc1 [C00002]	> 200	> 200	18.5 ± 0.33	> 200	–	–	–	–
Clc1ccc(Nc2c(-c3c[nH]c4ccccc34)nc3ccccn23)cc1 [C00003]	20.47 ± 0.1	18.3 ± 1.22	1.84 ± 0.83	39.2 ± 1.84	–	–	–	–
Clc1ccc(Nc2c(-c3ccco3)nc3ccccn23)cc1 [C00005]	66.5 ± 37.9	48.3 ± 0.53	32.93 ± 0.09	197 ± 14.4	–	–	–	–
Cc1cccc(-c2nc3ccccn3c2Nc2ccc(Cl)cc2)c1 [C00006]	195 ± 19.9	–	–	–	–	–	–	–
COc1cccc(-c2nc3ccccn3c2Nc2ccc(Cl)cc2)c1OC [C00007]	> 200	> 200	> 200	> 200	–	–	–	–
Clc1ccc(Nc2c(-c3ccc4ccccc4c3)nc3ccccn23)cc1 [C00008]	–	–	> 200	> 200	–	–	–	–
Clc1ccc(Nc2c(-c3ccsc3)nc3ccccn23)cc1 [C00009]	> 200	> 200	> 200	> 200	–	–	–	–
Fc1ccc(-c2nc3ccccn3c2Nc2ccc(Cl)cc2)c(F)c1 [C00010]	–	10.1 ± 0.7	16.31 ± 0.08	14.39 ± 0.04	–	–	–	–
FC(F)(F)c1ccc(-c2nc3ccccn3c2Nc2ccc(Cl)cc2)cc1 [C00011]	> 200	85.5 ± 18.8	63.9 ± 2.33	195 ± 15.3	–	–	–	–
COc1ccc(-c2nc3ccccn3c2Nc2ccc(Cl)cc2)c(OC)c1OC [Compound 9, N-(4-chlorophenyl)−2-(2,3,4-trimethoxyphenyl)imidazo[1,2-a]pyridin-3-amine]	–	–	–	–	–	–	–	Cytotoxicity against MCF-7 (in words) [1]: ineffective; Cytotoxicity against HT-29 (in words) [2]: ineffective; Cytotoxicity against B16F10 (in words) [4]: ineffective
COc1ccc(-c2nc3ccccn3c2Nc2ccc(Cl)cc2)cc1OCc1ccccc1 [Compound 10, 2-(3-(Benzyloxy)−4-methoxyphenyl)-N-(4-chlorophenyl)imidazo[1,2-a]pyridin-3-amine]	–	–	–	–	–	–	–	Cytotoxicity against MCF-7 (in words) [1]: ineffective; Cytotoxicity against HT-29 (in words) [2]: ineffective; Cytotoxicity against B16F10 (in words) [4]: ineffective
Clc1ccc(Nc2c(-c3c[nH]c4ccccc34)nc3ccccn23)cc1 [Compound 11, N-(4-chlorophenyl)−2-(1 H-indol-3-yl)imidazo[1,2-a]pyridin-3-amine]	–	–	< 1.84	–	20.47 ± 0.1	18.3 ± 1.22	1.84 ± 0.83	IC50 ([4]; Mus musculus, B16-F10, 24 h): 39.2 ± 1.84 µM
O=[N+]([O-])c1ccccc1-c1nc2ccccn2c1Nc1ccc(Cl)cc1 [Compound 12, N-(4-chlorophenyl)−2-(2-nitrophenyl)imidazo[1,2-a]pyridin-3-amine]	–	–	–	–	30.9 ± 14.4	4.15 ± 2.93	40.5 ± 4.34	Morphological changes, B16F10 (B16F10 cell line): shrinkage and lost their original form; Cytotoxicity against normal cells relative to HT-29 (fold lower) ([3]; MEF IC50 versus HT-29 IC50): tenfold; Morphological changes, HT-29 (HT-29 cell line): shrinkage and lost their original form; IC50 ([4]; Mus musculus, B16-F10, 24 h): 64.8 ± 15.8 µM
Clc1ccc(Nc2c(-c3ccco3)nc3ccccn23)cc1 [Compound 13, N-(4-chlorophenyl)−2-(furan-2-yl)imidazo[1,2-a]pyridin-3-amine]	> 45	> 45	–	–	66.5 ± 37.9	48.3 ± 0.53	32.93 ± 0.09	–
Cc1cccc(-c2nc3ccccn3c2Nc2ccc(Cl)cc2)c1 [Compound 14, N-(4-chlorophenyl)−2-(m-tolyl)imidazo[1,2-a]pyridin-3-amine]	–	–	–	–	–	44.45 ± 0.15	> 200	Morphological changes, B16F10 (B16F10 cell line): shrinkage and lost their original form; Morphological changes, HT-29 (HT-29 cell line): shrinkage and lost their original form; IC50 ([4]; Mus musculus, B16-F10, 24 h): 21.8 ± 0.81 µM
COc1cccc(-c2nc3ccccn3c2Nc2ccc(Cl)cc2)c1OC [Compound 15, N-(4-chlorophenyl)−2-(2,3-dimethoxyphenyl)imidazo[1,2-a]pyridin-3-amine]	–	–	–	–	–	–	–	Cytotoxicity against MCF-7 (in words) [1]: ineffective; Cytotoxicity against HT-29 (in words) [2]: ineffective; Cytotoxicity against B16F10 (in words) [4]: ineffective
Clc1ccc(Nc2c(-c3ccc4ccccc4c3)nc3ccccn23)cc1 [Compound 16, N-(4-chlorophenyl)−2-(naphthalen-2-yl)imidazo[1,2-a]pyridin-3-amine]	–	–	–	–	84 ± 3.37	93.08 ± 0.61	–	Cytotoxicity against B16F10 (in words) [4]: inactive
Clc1ccc(Nc2c(-c3ccsc3)nc3ccccn23)cc1 [Compound 17, N-(4-chlorophenyl)−2-(thiophen-3-yl)imidazo[1,2-a]pyridin-3-amine]	–	–	–	–	–	–	–	Cytotoxicity against MCF-7 (in words) [1]: ineffective; Cytotoxicity against HT-29 (in words) [2]: ineffective; Cytotoxicity against B16F10 (in words) [4]: ineffective
Fc1ccc(-c2nc3ccccn3c2Nc2ccc(Cl)cc2)c(F)c1 [Compound 18, N-(4-chlorophenyl)−2-(2,4-difluorophenyl)imidazo[1,2-a]pyridin-3-amine]	< 15	< 15	–	< 15	14.8 ± 0.2	10.1 ± 0.7	16.31 ± 0.08	IC50 ([4]; Mus musculus, B16-F10, 24 h): 14.39 ± 0.04 µM
FC(F)(F)c1ccc(-c2nc3ccccn3c2Nc2ccc(Cl)cc2)cc1 [Compound 19, N-(4-chlorophenyl)−2-(4-(trifluoromethyl)phenyl)imidazo[1,2-a]pyridin-3-amine]	–	–	–	–	≥ 200	85.5 ± 18.8	63.9 ± 2.33	IC50 ([4]; Mus musculus, B16-F10, 24 h): ≥ 200 µM
CC(=O)O[C@H]1C(=O)[C@@]2(C)[C@H]([C@H](OC(=O)c3ccccc3)[C@]3(O)C[C@H](OC(=O)[C@H](O)[C@@H](NC(=O)c4ccccc4)c4ccccc4)C(C)=C1C3(C)C)[C@]1(OC(C)=O)CO[C@@H]1C[C@@H]2O [Paclitaxel (Taxol), Paclitaxel, reference compound]	–	–	–	–	0.00834	0.0166	17.2	IC50 ([4]; Mus musculus, B16-F10, 24 h): 55.7 µM
